{"source": "patent US20140113001A1", "about": "“ENHANCED ACTIVITY HYDROGEN PEROXIDE DISINFECTANT” (Virox Technologies Inc., priority 2002, published 2014)", "origin": "cited, not measured here", "test_system": "Staphylococcus aureus", "note": "Where two headings read alike, the source gives them in different places."}
{"smiles": "OO", "note": "[hydrogen peroxide]", "values": [{"measurement": "time required to disinfect surfaces contaminated with staphylococcus aureus", "setting": "0.1% w/w aqueous solution", "value": 60, "unit": "min"}, {"measurement": "time required to disinfect surfaces contaminated with staphylococcus aureus", "setting": "25.8% w/w aqueous solution", "value": 0.333, "unit": "min"}]}
